Assay results from patent publication US10189843B2, “Fused pyrazole derivative having autotaxin inhibitory activity” (The University of Tokyo, priority 2014, dated 2019).

Target: T1, Human autotaxin enzyme (Homo sapiens, UniProt Q13822)
T1 construct: purchased R&D System
Assay: Evaluation of autotaxin inhibitor, Method C (18:0 Lyso PC substrate, choline assay, Resorufin fluorescence)
Assay type: biochemical
Conditions: Method C (Test Example 3), read-out: Inhibitory activity (enzyme inhibitory activity, IC50)
Procedure, shortened: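 Recombinant human autotaxin with compound and 200 μM 18:0 Lyso PC (stock) in Tris-HCl pH 7.5, NaCl, MgCl2, Triton X-100, 2 h RT. Released choline detected via choline oxidase/peroxidase/Amplex-type reagent, 20 min, resorufin fluorescence 531/598 nm; % inhibition vs no-compound and no-enzyme controls, concentration-response curve.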

CCCCCC1CN(CC(=O)N2CCCC(O)C2)C(=O)c2cc(-c3ccc(Cl)cc3)nn21 (stereo not drawn) [Compound I-0092]
IC50: 100 to 1000 nM

CCCCCC1CN(CC(=O)NCCCN(C)C)C(=O)c2cc(-c3ccc(Cl)cc3)nn21 (stereo not drawn) [Compound I-0104]
IC50: ≥ 1000 nM

CCCCCC1CN(CC(=O)N2CCC[C@H]2C)C(=O)c2cc(-c3ccc(Cl)cc3)nn21 (stereo partly drawn) [Compound I-0117]
IC50: 100 to 1000 nM

CCCCCC1CN(CC(=O)N2CCC(C)C2)C(=O)c2cc(-c3ccc(Cl)cc3)nn21 (stereo not drawn) [Compound I-0074]
IC50: 100 to 1000 nM

CCCCCC1CN(CC(=O)NC(Cc2ccccc2)C(=O)O)C(=O)c2cc(-c3ccc(Cl)cc3)nn21 (stereo not drawn) [Compound I-0055]
IC50: < 10 nM

CCCCCC1CN(Cc2cccc(C(=O)O)n2)C(=O)c2cc(-c3ccc(Cl)cc3)nn21 (stereo not drawn) [Compound I-0184]
IC50: < 10 nM

CCCCC1CN(Cc2ccc(C#N)cc2)C(=O)c2cc(-c3ccc(OC)cc3)nn21 (stereo not drawn) [Compound I-0205]
IC50: 100 to 1000 nM

CCCCCC1CN(CC(=O)NCc2ccc(C(=O)O)cc2)C(=O)c2cc(-c3ccc(Cl)cc3)nn21 (stereo not drawn) [Compound I-0045]
IC50: 100 to 1000 nM

CCCOCC1CN(CC(=O)N2CCC(C(=O)O)CC2)C(=O)c2cc(-c3ccc(Cl)cc3)nn21 (stereo not drawn) [Compound I-0319]
IC50: < 10 nM

CCCOCC1CN(Cc2cccc(C(=O)O)c2)C(=O)c2cc(-c3ccc(Cl)cc3)nn21 (stereo not drawn) [Compound I-0176]
IC50: < 10 nM

CCCCCC1CN(Cc2ccccc2C#N)C(=O)c2cc(-c3ccc(Cl)cc3)nn21 (stereo not drawn) [Compound I-0129]
IC50: ≥ 1000 nM

CCCC1CN(Cc2ccc(C#N)cc2)C(=O)c2cc(-c3ccc(Cl)cc3NC(C)=O)nn21 (stereo not drawn) [Compound I-0188]
IC50: 10 to 100 nM

CCCCCC1CN(CC(=O)Nc2ccccc2CC(=O)O)C(=O)c2cc(-c3ccc(Cl)cc3)nn21 (stereo not drawn) [Compound I-0067]
IC50: 100 to 1000 nM

CCCCC1CN(Cc2ccc(C#N)cc2)C(=O)c2cc(-c3ccc(C(F)(F)F)cc3)nn21 (stereo not drawn) [Compound I-0191]
IC50: 100 to 1000 nM

CCCCCC1CN(Cc2ccc(S(C)(=O)=O)cc2)C(=O)c2cc(-c3ccc(Cl)cc3)nn21 (stereo not drawn) [Compound I-0141]
IC50: 100 to 1000 nM

CCCCCC1CN(Cc2cccc(CC(=O)OCC)c2)C(=O)c2cc(-c3ccc(Cl)cc3)nn21 (stereo not drawn) [Compound I-0125]
IC50: ≥ 1000 nM

C[C@H]1CN(Cc2ccc(C#N)cc2)C(=O)c2cc(-c3ccc(Cl)cc3)nn21 [Compound I-0165]
IC50: ≥ 1000 nM

CCCCC1CN(Cc2ccc(C#N)cc2)C(=O)c2cc(-c3ccc(Cl)cc3CN(C)C)nn21 (stereo not drawn) [Compound I-0282]
IC50: ≥ 1000 nM

CCCCCC1CN(CC(=O)N2CCCCC2C)C(=O)c2cc(-c3ccc(Cl)cc3)nn21 (stereo not drawn) [Compound I-0116]
IC50: 10 to 100 nM

CCOC(=O)C1CCN(C(=O)CN2C(=O)c3cc(-c4ccc(Cl)cc4)nn3[C@@H]3CCC[C@@H]32)CC1 [Compound I-0011]
IC50: ≥ 1000 nM

CCCCCC1CN(CC(=O)N2CCC(C(=O)O)C2)C(=O)c2cc(-c3ccc(Cl)cc3)nn21 (stereo not drawn) [Compound I-0066]
IC50: 10 to 100 nM

C[C@H]1CN(Cc2cccc(OCCCN(C)C)c2)C(=O)c2cc(-c3ccc(Cl)cc3)nn21 [Compound I-0166]
IC50: ≥ 1000 nM

CCCCCC1CN(CC(=O)N2CCCC2)C(=O)c2cc(-c3ccc(Cl)cc3)nn21 (stereo not drawn) [Compound I-0097]
IC50: 100 to 1000 nM

CCCCC1CN(CCOC)C(=O)c2cc(-c3ccc(Cl)cc3)nn21 (stereo not drawn) [Compound I-0271]
IC50: 100 to 1000 nM

CCCCCC1CN(CC(=O)N2CCC(=O)CC2)C(=O)c2cc(-c3ccc(Cl)cc3)nn21 (stereo not drawn) [Compound I-0113]
IC50: 10 to 100 nM

CCCCC1CN(CC(=O)NCc2nn[nH]n2)C(=O)c2cc(-c3ccc(Cl)cc3)nn21 (stereo not drawn) [Compound I-0232]
IC50: 10 to 100 nM

O=C(O)C1CCN(C(=O)CN2C(=O)c3cc(-c4ccc(Cl)cc4)nn3[C@@H]3CCC[C@@H]32)CC1 [Compound I-0013]
IC50: ≥ 1000 nM

N#CC1(NC(=O)CN2CC(COCC(F)(F)F)n3nc(-c4ccc(Cl)cc4)cc3C2=O)CC1 (stereo not drawn) [Compound I-0314]
IC50: 100 to 1000 nM

C[C@H]1CN(Cc2ccc(C#N)cc2)C(=O)c2cc(-c3ccc(Cl)cc3C#N)nn21 [Compound I-0298]
IC50: 100 to 1000 nM

CC(=O)Nc1cc(Cl)cc(CO)c1-c1cc2n(n1)[C@@H](C)CN(Cc1ccc(C#N)cc1)C2=O [Compound I-0347]
IC50: 10 to 100 nM

CCCCCC1CN(CC(=O)N(C)CC(=O)O)C(=O)c2cc(-c3ccc(Cl)cc3)nn21 (stereo not drawn) [Compound I-0043]
IC50: 10 to 100 nM

CC(=O)Nc1cc(OC(F)(F)F)ccc1-c1cc2n(n1)[C@@H](C)CN(Cc1cccc(C(=O)O)c1)C2=O [Compound I-0345]
IC50: < 10 nM

CCNc1cc(Cl)ccc1-c1cc2n(n1)[C@@H](C)CN(Cc1ccc(C#N)cc1)C2=O [Compound I-0328]
IC50: 100 to 1000 nM

CCCCCC1CN(CC(=O)N2C[C@@H]3C(C(=O)O)[C@@H]3C2)C(=O)c2cc(-c3ccc(Cl)cc3)nn21 (stereo partly drawn) [Compound I-0063]
IC50: 10 to 100 nM

CCCCC1CN(Cc2ccccn2)C(=O)c2cc(-c3ccc(Cl)cc3)nn21 (stereo not drawn) [Compound I-0256]
IC50: 100 to 1000 nM

C[C@H]1CN(CC(=O)C2CCCCN2C(=O)O)C(=O)c2cc(-c3ccc(Cl)cc3)nn21 (stereo partly drawn) [Compound I-0158]
IC50: 100 to 1000 nM

CCCCCC1CN(Cc2cccc3c(C(=O)O)csc23)C(=O)c2cc(-c3ccc(Cl)cc3)nn21 (stereo not drawn) [Compound I-0121]
IC50: 10 to 100 nM

CCCCC1CN(CC2CN(C(C)C)C(=O)O2)C(=O)c2cc(-c3ccc(Cl)cc3)nn21 (stereo not drawn) [Compound I-0275]
IC50: 10 to 100 nM

CCCCCC1CN(CC(=O)N2CCC(c3ccccc3)C2)C(=O)c2cc(-c3ccc(Cl)cc3)nn21 (stereo not drawn) [Compound I-0110]
IC50: 100 to 1000 nM

CC(C#N)Nc1cc(Cl)ccc1-c1cc2n(n1)[C@@H](C)CN(Cc1ccc(C#N)cc1)C2=O (stereo partly drawn) [Compound I-0325]
IC50: ≥ 1000 nM

CCOC(=O)CN1CC(COCc2ccccc2)n2nc(-c3ccc(Cl)cc3)cc2C1=O (stereo not drawn) [Compound I-0026]
IC50: ≥ 1000 nM

C[C@H]1CN(CC(=O)N(C)CC#N)C(=O)c2cc(-c3ccc(C#N)cc3NC(=O)C3CC3)nn21 [Compound I-0364]
IC50: 10 to 100 nM

CCCCCC1CN(CC(=O)N2CCC(C(N)=O)C2)C(=O)c2cc(-c3ccc(Cl)cc3)nn21 (stereo not drawn) [Compound I-0112]
IC50: 100 to 1000 nM

CCOCC1CNC(=O)c2cc(-c3ccc(Cl)cc3)nn21 (stereo not drawn) [Compound I-0198]
IC50: ≥ 1000 nM

CCCCC1CN(CC(=O)N(CCC#N)CCC#N)C(=O)c2cc(-c3ccc(Cl)cc3)nn21 (stereo not drawn) [Compound I-0235]
IC50: 10 to 100 nM

N#Cc1ccc(CN2CC3CC/C=C\CC(=O)Nc4cc(Cl)ccc4-c4cc(n3n4)C2=O)cc1 (stereo not drawn) [Compound I-0358]
IC50: 10 to 100 nM

CCCCC1CN(Cc2ccc(C#N)cc2)C(=O)c2cc(C3=CCC(C(F)(F)F)CC3)nn21 (stereo not drawn) [Compound I-0276]
IC50: 100 to 1000 nM

C[C@H]1CN(Cc2ccc(C#N)cc2)C(=O)c2cc(-c3ccc(Cl)cc3NC(=O)C3CC3)nn21 [Compound I-0322]
IC50: 10 to 100 nM

CCCCC1CN(CC(=O)N(C)CC(O)c2ccccc2)C(=O)c2cc(-c3ccc(Cl)cc3)nn21 (stereo not drawn) [Compound I-0228]
IC50: 100 to 1000 nM

CCCCCC1CN(Cc2cncc(C(=O)O)c2)C(=O)c2cc(-c3ccc(Cl)cc3)nn21 (stereo not drawn) [Compound I-0185]
IC50: 10 to 100 nM

CCCCCC1CN(CC(=O)NCCCCC(=O)O)C(=O)c2cc(-c3ccc(Cl)cc3)nn21 (stereo not drawn) [Compound I-0061]
IC50: 10 to 100 nM

C[C@H]1CN(CC(=O)N(C)CCC#N)C(=O)c2cc(-c3ccc(C#N)cc3NC(=O)CC(F)(F)F)nn21 [Compound I-0352]
IC50: 10 to 100 nM

C[C@H]1CN(Cc2ccc(C#N)cc2)C(=O)c2cc(-c3ccc(Cl)cc3NS(C)(=O)=O)nn21 [Compound I-0323]
IC50: 100 to 1000 nM

CCCCC1CN(Cc2ccc(C#N)cc2)C(=O)c2cc(-c3ccc(C#N)cc3)nn21 (stereo not drawn) [Compound I-0201]
IC50: 10 to 100 nM

CCCCC1CN(Cc2ccc(C#N)cc2)C(=O)c2cc(-c3ccc(Cl)cc3CNC)nn21 (stereo not drawn) [Compound I-0278]
IC50: ≥ 1000 nM

CCCCCC1CN(CC(=O)N2CCCCC2c2ccccc2)C(=O)c2cc(-c3ccc(Cl)cc3)nn21 (stereo not drawn) [Compound I-0105]
IC50: 100 to 1000 nM

O=C(O)C1CN(C(=O)CN2C(=O)c3cc(-c4ccc(Cl)cc4)nn3C3COCC32)C1 (stereo not drawn) [Compound I-0029]
IC50: ≥ 1000 nM

CCCCC1CN(CC(=O)NCCC(N)=O)C(=O)c2cc(-c3ccc(Cl)cc3)nn21 (stereo not drawn) [Compound I-0222]
IC50: 100 to 1000 nM

CCCCC1CN(Cc2nc3ccccc3o2)C(=O)c2cc(-c3ccc(Cl)cc3)nn21 (stereo not drawn) [Compound I-0261]
IC50: 100 to 1000 nM

CCCCC1CN(Cc2ccc(C#N)cc2)C(=O)c2cc(-c3ccc(Cl)cc3CC#N)nn21 (stereo not drawn) [Compound I-0293]
IC50: 100 to 1000 nM

CCCCC1CN(Cc2cncn2C)C(=O)c2cc(-c3ccc(Cl)cc3)nn21 (stereo not drawn) [Compound I-0258]
IC50: 100 to 1000 nM

CCOCC1CN(Cc2ccc(C#N)cc2)C(=O)c2cc(-c3ccc(Cl)cc3)nn21 (stereo not drawn) [Compound I-0178]
IC50: 100 to 1000 nM

CCCCC1CN(CC(=O)NCC(O)CO)C(=O)c2cc(-c3ccc(Cl)cc3)nn21 (stereo not drawn) [Compound I-0219]
IC50: 100 to 1000 nM

CCCCC1CN(CCOc2ccccc2)C(=O)c2cc(-c3ccc(Cl)cc3)nn21 (stereo not drawn) [Compound I-0270]
IC50: 100 to 1000 nM

CCCCC1CN(CC(=O)NCC(N)=O)C(=O)c2cc(-c3ccc(Cl)cc3)nn21 (stereo not drawn) [Compound I-0215]
IC50: 100 to 1000 nM

CCCCCC1CN(CC(=O)N2CCC(C(=O)NC3(C#N)CC3)CC2)C(=O)c2cc(-c3ccc(Cl)cc3)nn21 (stereo not drawn) [Compound I-0295]
IC50: 10 to 100 nM

CC(=O)Nc1cc(Cl)ccc1-c1cc2n(n1)[C@@H](C)CN(Cc1ccc(C#N)cc1)C2=O [Compound I-0285]
IC50: < 10 nM

O=C(O)C1CCN(C(=O)CN2C(=O)c3cc(-c4ccc(Cl)cc4)nn3C3COCC32)CC1 (stereo not drawn) [Compound I-0028]
IC50: ≥ 1000 nM

C[C@H]1CN(CC(=O)N(C)CCC#N)C(=O)c2cc(-c3ccc(C#N)cc3NC(=O)C(C)(C)C)nn21 [Compound I-0359]
IC50: 10 to 100 nM

CCCCCC1CN(CC(=O)N2CCC(CC(C)C)C2)C(=O)c2cc(-c3ccc(Cl)cc3)nn21 (stereo not drawn) [Compound I-0039]
IC50: 100 to 1000 nM

CCCCC1CN(CN)C(=O)c2cc(-c3ccc(Cl)cc3)nn21 (stereo not drawn) [Compound I-0288]
IC50: ≥ 1000 nM

CCCCCC1CN(Cc2cccc(C(=O)N3CCC(O)CC3)c2)C(=O)c2cc(-c3ccc(Cl)cc3)nn21 (stereo not drawn) [Compound I-0137]
IC50: 10 to 100 nM
